{"source": "PubChem BioAssay AID1745844", "about": "(Carcinogenic Potency Database (CPDB), 2022)", "tested_on": "rodent lifetime carcinogenesis bioassay, tumor incidence TD50", "experiment": "chronic cancer bioassays in animals – CPDB, compiled studies (AID 1745844)", "conditions": "rat, strain Wistar, in feed"}
{"molecule": "O=P(O)(OCC(Br)CBr)OCC(Br)CBr", "note": "(configuration not stated)", "values": [{"measurement": "TD50", "setting": "females, site: esophagus, lesion: squamous-cell papilloma, dosed 78 weeks, study length 78 weeks", "result": 107, "unit": "mg/kg/day"}, {"measurement": "TD50", "setting": "females, site: esophagus, lesion: squamous-cell papilloma, dosed 96 weeks, study length 101 weeks", "result": 394, "unit": "mg/kg/day"}, {"measurement": "TD50", "setting": "females, site: forestomach, lesion: several types, types named in the paper, dosed 78 weeks, study length 78 weeks", "result": 19.6, "unit": "mg/kg/day"}, {"measurement": "TD50", "setting": "females, site: forestomach, lesion: several types, types named in the paper, dosed 96 weeks, study length 101 weeks", "result": 40, "unit": "mg/kg/day"}, {"measurement": "TD50", "setting": "females, site: forestomach, lesion: squamous-cell carcinoma, dosed 78 weeks, study length 78 weeks", "result": 171, "unit": "mg/kg/day"}, {"measurement": "TD50", "setting": "females, site: forestomach, lesion: squamous-cell carcinoma, dosed 96 weeks, study length 101 weeks", "result": 301, "unit": "mg/kg/day"}, {"measurement": "TD50", "setting": "females, site: forestomach, lesion: squamous-cell papilloma, dosed 52 weeks, study length 52 weeks", "result": 47.6, "unit": "mg/kg/day"}, {"measurement": "TD50", "setting": "females, site: forestomach, lesion: squamous-cell papilloma, dosed 78 weeks, study length 78 weeks", "result": 34.5, "unit": "mg/kg/day"}, {"measurement": "TD50", "setting": "females, site: forestomach, lesion: squamous-cell papilloma, dosed 96 weeks, study length 101 weeks", "result": 60.3, "unit": "mg/kg/day"}, {"measurement": "TD50", "setting": "females, site: kidney, lesion: renal-cell adenoma, dosed 96 weeks, study length 101 weeks", "result": 1250, "unit": "mg/kg/day"}, {"measurement": "TD50", "setting": "females, site: kidney, lesion: renal-cell carcinoma, dosed 96 weeks, study length 101 weeks", "result": 1250, "unit": "mg/kg/day"}, {"measurement": "TD50", "setting": "females, site: kidney, lesion: several types, types named in the paper, dosed 96 weeks, study length 101 weeks", "result": 608, "unit": "mg/kg/day"}, {"measurement": "TD50", "setting": "females, site: liver, lesion: hepatocellular adenoma, dosed 52 weeks, study length 52 weeks", "result": 33.2, "unit": "mg/kg/day"}, {"measurement": "TD50", "setting": "females, site: liver, lesion: hepatocellular adenoma, dosed 78 weeks, study length 78 weeks", "result": 20.6, "unit": "mg/kg/day"}, {"measurement": "TD50", "setting": "females, site: liver, lesion: hepatocellular carcinoma, dosed 52 weeks, study length 52 weeks", "result": 35.1, "unit": "mg/kg/day"}, {"measurement": "TD50", "setting": "females, site: liver, lesion: hepatocellular carcinoma, dosed 78 weeks, study length 78 weeks", "result": 20.1, "unit": "mg/kg/day"}, {"measurement": "TD50", "setting": "females, site: liver, lesion: hepatocellular carcinoma, dosed 96 weeks, study length 101 weeks", "result": 37.1, "unit": "mg/kg/day"}, {"measurement": "TD50", "setting": "females, site: liver, lesion: several types, types named in the paper, dosed 52 weeks, study length 52 weeks", "result": 11.8, "unit": "mg/kg/day"}, {"measurement": "TD50", "setting": "females, site: liver, lesion: several types, types named in the paper, dosed 78 weeks, study length 78 weeks", "result": 11.9, "unit": "mg/kg/day"}, {"measurement": "TD50", "setting": "females, site: liver, lesion: several types, types named in the paper, dosed 96 weeks, study length 101 weeks", "result": 27.8, "unit": "mg/kg/day"}, {"measurement": "TD50", "setting": "females, site: small intestine, lesion: adenocarcinoma, dosed 78 weeks, study length 78 weeks", "result": 107, "unit": "mg/kg/day"}, {"measurement": "TD50", "setting": "females, site: small intestine, lesion: adenocarcinoma, dosed 96 weeks, study length 101 weeks", "result": 179, "unit": "mg/kg/day"}, {"measurement": "TD50", "setting": "females, site: tongue, lesion: several types, types named in the paper, dosed 96 weeks, study length 101 weeks", "result": 301, "unit": "mg/kg/day"}, {"measurement": "TD50", "setting": "females, site: tongue, lesion: squamous-cell papilloma, dosed 78 weeks, study length 78 weeks", "result": 107, "unit": "mg/kg/day"}, {"measurement": "TD50", "setting": "females, site: tongue, lesion: squamous-cell papilloma, dosed 96 weeks, study length 101 weeks", "result": 403, "unit": "mg/kg/day"}, {"measurement": "TD50", "setting": "males, site: esophagus, lesion: several types, types named in the paper, dosed 90 weeks, study length 102 weeks", "result": 45.1, "unit": "mg/kg/day"}, {"measurement": "TD50", "setting": "males, site: esophagus, lesion: squamous-cell papilloma, dosed 78 weeks, study length 78 weeks", "result": 16.5, "unit": "mg/kg/day"}, {"measurement": "TD50", "setting": "males, site: esophagus, lesion: squamous-cell papilloma, dosed 90 weeks, study length 102 weeks", "result": 62.1, "unit": "mg/kg/day"}, {"measurement": "TD50", "setting": "males, site: forestomach, lesion: several types, types named in the paper, dosed 52 weeks, study length 52 weeks", "result": 38.1, "unit": "mg/kg/day"}, {"measurement": "TD50", "setting": "males, site: forestomach, lesion: several types, types named in the paper, dosed 90 weeks, study length 102 weeks", "result": 37.8, "unit": "mg/kg/day"}, {"measurement": "TD50", "setting": "males, site: forestomach, lesion: squamous-cell carcinoma, dosed 52 weeks, study length 52 weeks", "result": 129, "unit": "mg/kg/day"}, {"measurement": "TD50", "setting": "males, site: forestomach, lesion: squamous-cell carcinoma, dosed 90 weeks, study length 102 weeks", "result": 979, "unit": "mg/kg/day"}, {"measurement": "TD50", "setting": "males, site: forestomach, lesion: squamous-cell papilloma, dosed 52 weeks, study length 52 weeks", "result": 60.9, "unit": "mg/kg/day"}, {"measurement": "TD50", "setting": "males, site: forestomach, lesion: squamous-cell papilloma, dosed 78 weeks, study length 78 weeks", "result": 56.1, "unit": "mg/kg/day"}, {"measurement": "TD50", "setting": "males, site: forestomach, lesion: squamous-cell papilloma, dosed 90 weeks, study length 102 weeks", "result": 43.5, "unit": "mg/kg/day"}, {"measurement": "TD50", "setting": "males, site: kidney, lesion: renal-cell adenoma, dosed 78 weeks, study length 78 weeks", "result": 56.1, "unit": "mg/kg/day"}, {"measurement": "TD50", "setting": "males, site: kidney, lesion: renal-cell adenoma, dosed 90 weeks, study length 102 weeks", "result": 45.1, "unit": "mg/kg/day"}, {"measurement": "TD50", "setting": "males, site: kidney, lesion: renal-cell carcinoma, dosed 52 weeks, study length 52 weeks", "result": 129, "unit": "mg/kg/day"}, {"measurement": "TD50", "setting": "males, site: kidney, lesion: several types, types named in the paper, dosed 90 weeks, study length 102 weeks", "result": 35, "unit": "mg/kg/day"}, {"measurement": "TD50", "setting": "males, site: liver, lesion: hepatocellular adenoma, dosed 78 weeks, study length 78 weeks", "result": 28.3, "unit": "mg/kg/day"}, {"measurement": "TD50", "setting": "males, site: liver, lesion: hepatocellular carcinoma, dosed 52 weeks, study length 52 weeks", "result": 129, "unit": "mg/kg/day"}, {"measurement": "TD50", "setting": "males, site: liver, lesion: several types, types named in the paper, dosed 52 weeks, study length 52 weeks", "result": 129, "unit": "mg/kg/day"}, {"measurement": "TD50", "setting": "males, site: small intestine, lesion: adenocarcinoma, dosed 52 weeks, study length 52 weeks", "result": 60.9, "unit": "mg/kg/day"}, {"measurement": "TD50", "setting": "males, site: small intestine, lesion: adenocarcinoma, dosed 90 weeks, study length 102 weeks", "result": 79, "unit": "mg/kg/day"}, {"measurement": "TD50", "setting": "males, site: small intestine, lesion: adenoma, dosed 52 weeks, study length 52 weeks", "result": 129, "unit": "mg/kg/day"}, {"measurement": "TD50", "setting": "males, site: small intestine, lesion: several types, types named in the paper, dosed 52 weeks, study length 52 weeks", "result": 38.1, "unit": "mg/kg/day"}, {"measurement": "TD50", "setting": "males, site: tongue, lesion: squamous-cell carcinoma, dosed 78 weeks, study length 78 weeks", "result": 56.1, "unit": "mg/kg/day"}]}
